The subject of series [1] is SUDHL10 cells. In words: Induction of caspase-3/7 activity (Caspase-Glo 3/7), SUDHL10. The following applies: EC50, median, SUDHL10, 3 h treatment. The class given is cell-based. The gist of the method: (§1)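 Apoptosis induction was gauged via caspase-3/7 activity (Caspase-Glo 3/7) following a 3 h compound incubation at 37 °C. Background from medium-only wells was removed from each value.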

Series [2] concerns SUDHL10 cells. Briefly: Induction of cytotoxicity (CellTiter-Glo, 5 h), SUDHL10. Conditions: SUDHL10, 5 h. On the technique in general: In ATP-based viability assays light output follows the ATP content of the culture.
The test system of series [3] is SUDHL5 cells. Briefly: Induction of cytotoxicity (CellTiter-Glo, 5 h), SUDHL5. The following applies: SUDHL5, 5 h.
Another series deals with HMC-1-8 cells. Briefly: Antiproliferation assay (CellTiter-Glo, 72 h), HMC-1-8. The class given is cell-based. Conditions: IC50, median, HMC-1-8, 72 h, read-out: Antiproli HMC-1-8 [M] median. On the procedure: (§2) Assessment of the Anti-Proliferative Effect of Compounds in Different Cell Lines
(§3) The impact of compounds on the proliferation of different cell lines was assessed using the CellTiter-Glo® Luminescent Cell Viability reagent from Promega (G7573).
(§4) In parallel, cells were plated in a reference (day 0) plate for time zero determination.
(§5) Rim wells were excluded. The cells were incubated for 72 h hours in a humidified incubator at 37° C. The day 0 plate was measured by adding 30 μL/well of CTG solution (CellTiter-Glo® Luminescent Cell Viability reagent, Promega G7573) to time zero wells in the reference plate followed by a 10 minutes incubation and luminescence reading at 0.1 ms. using the PHERAstar FS microplate reader (BMG Labtech).
(§6) After 72 h incubation, the treated plates were measured in the same way as the day 0 plate mentioned above.

A further series relates to AMO-1 cells. In words: Antiproliferation assay (CellTiter-Glo, 72 h), AMO-1. The class given is cell-based. Conditions: IC50, median, AMO-1, 72 h, read-out: Antiproli AMO-1 [M] median. An outline of the steps: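 Proliferation is determined by CellTiter-Glo luminescence following 72 h incubation with compound at 37 °C, relative to a time-zero plate measured at plating.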

Series [4] has as its system SUDHL5 cells. In words: Antiproliferation assay (CellTiter-Glo, 72 h), SUDHL5. Type of series: cell-based. The following applies: IC50, median, SUDHL5, 72 h, read-out: Antiproli SUDHL5 [M] (median). The procedure:
as §2, §3, §4, §5, §6

Series [5] concerns SUDHL5 cells. In words: Induction of caspase-3/7 activity (Caspase-Glo 3/7), SUDHL5. Type of series: cell-based. The following applies: EC50, median, SUDHL5, 3 h treatment. An outline of the steps: as §1
[6] abbreviates: Homo sapiens, SU-DHL10, 5 h, read-out: Cytotox SUDHL10 [M] (median), IC50, median.
The mark [7] stands for this setting: Homo sapiens, SU-DHL-5, 5 h, read-out: Cytotox SUDHL5 [M] (median), IC50, median.
[8] abbreviates: read-out: Cytotox SUDHL10 [M] (median), IC50, median.
The mark [9] stands for this setting: read-out: Cytotox SUDHL5 [M] (median), IC50, median.

The values that follow come from US11478451B1, “Macrocyclic chlorine substituted indole derivatives” (Bayer Aktiengesellschaft, priority 2017, dated 2022).

Counter-ions that a name gives are not always drawn. Like-named read-outs stand apart in the source and are kept apart here.

As to `CCc1c2c(nn1C)CN(CC(F)(F)F)CCCCn1c(C(=O)O)c(CCCOc3cccc4cc(F)ccc34)c3ccc(Cl)c-2c31` (racemic) [Example 61, (rac) 4-chloro-3-ethyl-7-{3-[(6-fluoronaphthalen-1-yl)oxy]propyl}-2-methyl-14-(2,2,2-trifluo-roethyl)-10,11,12,13,14,15-hexahydro-2H-pyrazolo[3′,4′:8,9][1,6]diazacycloundecino[10,11,1-hi]indole-8-carboxylic acid], in the series on SUDHL10 cells [1] (Homo sapiens, SU-DHL10, 3 h), the EC50 – broadly, the concentration that produces a half-maximal response – amounted to 440 nM. Also, the IC50 in the series with SUDHL10 cells [2] (setting [6]) was determined as 5.3e-07 M; with SUDHL5 cells [3] (setting [7]) it was 3.4e-07 M; in the series with HMC-1-8 cells (72 h), 1.7e-06 M; with AMO-1 cells (Homo sapiens, AMO1, 72 h), 6.8e-07 M; in the series on SUDHL5 cells [4] (Homo sapiens, SU-DHL-5, 72 h), 2.5e-07 M.

In the series with SUDHL10 cells [1], `CCc1c2c(nn1C)CN(CC(F)F)CCCCn1c(C(=O)O)c(CCCOc3cccc4cc(F)ccc34)c3ccc(Cl)c-2c31` (racemic) [Example 62, (rac)-4-chloro-14-(2,2-difluoroethyl)-3-ethyl-7-{3-[(6-fluoronaphthalen-1-yl)oxy]propyl}-2-methyl-10,11,12,13,14,15-hexahydro-2H-pyrazolo[3′,4′:8,9][1,6]diazacycloundecino[10,11,1-hi]indole-8-carboxylic acid] yielded an EC50 of 380 nM. Further, the IC50 was 3.6e-07 M in the series on SUDHL10 cells [2] (setting [8]); 3.1e-07 M in the series with SUDHL5 cells [3] (setting [9]); 2.2e-06 M in the series on HMC-1-8 cells (72 h); 2.2e-07 M in the series on AMO-1 cells; 3.4e-07 M in the series with SUDHL5 cells [4].

As for `CCc1c2c(nn1C)COCC1CC1Cn1c(C(=O)O)c(CCCOc3cccc4cc(F)ccc34)c3ccc(Cl)c-2c31` (racemic) [Example 103, (rac)-3-chloro-4-ethyl-14-{3-[(6-fluoronaphthalen-1-yl)oxy]propyl}-5-methyl-5,7,9a,10,10a,11-hexahydro-9H-cyclopropa[3,4]pyrazolo[4′,3′:9,10][1,6]oxazacycloundecino[8,7,6-hi]indole-13-carboxylic acid], in the series on SUDHL10 cells [1], the EC50 is 500 nM. Also, the IC50 is 7e-07 M in the series with SUDHL10 cells [2] (setting [8]); 5.7e-07 M in the series on SUDHL5 cells [3] (setting [9]); 7.1e-06 M in the series on HMC-1-8 cells (72 h); 8.2e-07 M in the series on AMO-1 cells; 5.5e-07 M with SUDHL5 cells [4].

As to `CCc1c2c(nn1C)CN(C)CCCn1c(C(=O)O)c(CCCOc3cccc4cc(F)ccc34)c3ccc(Cl)c-2c31` (racemic) [Example 112, (rac)-12-chloro-11-ethyl-1-{3-[(6-fluoronaphthalen-1-yl)oxy]propyl}-7,10-dimethyl-4,5,6,7,8,10-hexahydropyrazolo[3′,4′:7,8][1,5]diazecino[9,10,1-hi]indole-2-carboxylic acid], the EC50 stood at 860 nM with SUDHL10 cells [1] and 600 nM with SUDHL5 cells [5]. Also, the IC50 in the series on SUDHL5 cells [3] (setting [9]) stood at 6.1e-07 M; in the series on HMC-1-8 cells (72 h) it was 7.1e-06 M; with AMO-1 cells it was 9.1e-07 M; in the series on SUDHL5 cells [4] (Homo sapiens, SU-DHL-5, 72 h) it was 1.5e-06 M.

`CCc1c2c(nn1C)CN(CCC1CCOCC1)CCCCn1c(C(=O)O)c(CCCOc3cccc4cc(F)ccc34)c3ccc(Cl)c-2c31` (racemic) [Example 135, (rac)-4-chloro-3-ethyl-7-{3-[(6-fluoronaphthalen-1-yl)oxy]propyl}-2-methyl-14-[2-(oxan-4-yl)ethyl]-10,11,12,13,14,15-hexahydro-2H-pyrazolo[3′,4′:8,9][1,6]diazacycloundecino[10,11,1-hi]indole-8-carboxylic acid] yielded an EC50 in the series on SUDHL10 cells [1] (Homo sapiens, SU-DHL10, 3 h) of 140 nM. The IC50 is 1.5e-07 M in the series on SUDHL10 cells [2] (setting [6]); 8.7e-07 M in the series with HMC-1-8 cells (72 h); 1.2e-07 M in the series on AMO-1 cells (Homo sapiens, AMO1, 72 h); 1.2e-07 M in the series with SUDHL5 cells [4] (Homo sapiens, SU-DHL-5, 72 h).

For `CCc1c2c(nn1C)COCC1CC1Cn1c(C(=O)O)c(CCCOc3cccc4cc(F)ccc34)c3ccc(Cl)c-2c31` (single isomer, unassigned; (+)) [Example 104, (+)-3-chloro-4-ethyl-14-{3-[(6-fluoronaphthalen-1-yl)oxy]propyl}-5-methyl-5,7,9a,10,10a,11-hexahydro-9H-cyclopropa[3,4]pyrazolo[4′,3′:9,10][1,6]oxazacycloundecino[8,7,6-hi]indole-13-carboxylic acid N-ethylethanamine salt], the figures for the EC50 in the series with SUDHL10 cells [1] and in the series on SUDHL5 cells [5] were 1500 nM and 810 nM, respectively. Besides, the IC50 with SUDHL5 cells [3] (setting [9]) worked out at 9.7e-07 M; with HMC-1-8 cells, 8.5e-06 M; in the series with AMO-1 cells, 2.4e-06 M; in the series with SUDHL5 cells [4] (Homo sapiens, SU-DHL-5, 72 h) it was 1e-06 M.

`Cc1nn(C)c2c1-c1c(Cl)ccc3c(CCCOc4cccc5ccccc45)c(C(=O)O)n(c13)CCCCOC2` (single isomer, unassigned; enantiomer 1) [Example 3, 4-chloro-1,3-dimethyl-7-[3-(naphthalen-1-yloxy)propyl]-1,10,11,12,13,15-hexahydropyrazolo[4′,3′:9,10][1,6]oxazacycloundecino[8,7,6-hi]indole-8-carboxylic acid (Enantiomer 1)]: the EC50 in the series on SUDHL10 cells [1] (Homo sapiens, SU-DHL10, 3 h) worked out at 1600 nM; in the series on SUDHL5 cells [5] (Homo sapiens, SU-DHL-5, 3 h) it was 710 nM. Also, the IC50 in the series on SUDHL10 cells [2] (setting [6]) is 1.5e-06 M; with SUDHL5 cells [3] (setting [7]), 6.5e-07 M; with HMC-1-8 cells (72 h), 8.3e-06 M; in the series on AMO-1 cells (Homo sapiens, AMO1, 72 h), 2.5e-06 M.

`Cc1c2c(nn1C)CN(CC(F)(F)F)CCCCn1c(C(=O)O)c(CCCOc3cccc4cc(F)ccc34)c3ccc(Cl)c-2c31` (single isomer, unassigned; enantiomer 2) [Example 60, 4-chloro-7-{3-[(6-fluoronaphthalen-1-yl)oxy]propyl}-2,3-dimethyl-14-(2,2,2-trifluoroethyl)-10,11,12,13,14,15-hexahydro-2H-pyrazolo[3′,4′:8,9][1,6]diazacycloundecino[10,11,1-hi]indole-8-carboxylic acid—Enantiomer 2] gave an EC50 in the series with SUDHL5 cells [5] of 7600 nM. Moreover, the IC50 with SUDHL5 cells [3] (setting [9]) was determined as 6.9e-06 M; in the series with HMC-1-8 cells (72 h), 8.7e-06 M; in the series on SUDHL5 cells [4] it was 3.9e-06 M.

For `Cc1c2c(nn1C)COCC1CCC1Cn1c(C(=O)O)c(CCCOc3cccc4ccccc34)c3ccc(Cl)c-2c31` (single isomer, unassigned; enantiomer 2) [Example 79, 3-chloro-4,5-dimethyl-15-{3-[(naphthalen-1-yl)oxy]propyl}-5,7,9,9a,10,11,11a,12-octahydrocyclobuta[3,4]pyrazolo[4′,3′:9,10][1,6]oxazacycloundecino[8,7,6-hi]indole-14-carboxylic acid (Enantiomer 2)], the figures for the EC50 in the series on SUDHL10 cells [1] (listed as 079) and in the series on SUDHL5 cells [5] (listed as 079) were 1400 nM and 580 nM, respectively. The IC50 in the series on SUDHL10 cells [2] (read-out: Cytotox SUDHL10 [M] (median), IC50, median, listed as 079) worked out at 1.6e-06 M; with SUDHL5 cells [3] (read-out: Cytotox SUDHL5 [M] (median), IC50, median, listed as 079) it was 7.7e-07 M; in the series on HMC-1-8 cells (72 h), 8.6e-06 M; in the series on AMO-1 cells (listed as 079), 1.7e-06 M.

In the series with SUDHL5 cells [5], `Cc1c2c(nn1C)COCC1CCC1Cn1c(C(=O)O)c(CCCOc3cccc4ccccc34)c3ccc(Cl)c-2c31` (single isomer, unassigned; stereoisomer 2) [Example 64] had an EC50 of 330 nM. In addition, the IC50 came out at 5.4e-07 M in the series with SUDHL5 cells [3] (setting [7]); 5.6e-06 M in the series on HMC-1-8 cells (72 h); 1.6e-06 M in the series on AMO-1 cells (Homo sapiens, AMO1, 72 h); 5e-07 M in the series with SUDHL5 cells [4] (Homo sapiens, SU-DHL-5, 72 h).

In the case of `CCc1c2c(nn1C)CCCN(CC(F)F)CCn1c(C(=O)O)c(CCCOc3cccc4cc(F)ccc34)c3ccc(Cl)c-2c31` [Example 120, (−)-4-chloro-12-(2,2-difluoroethyl)-3-ethyl-7-{3-[(6-fluoronaphthalen-1-yl)oxy]propyl}-2-methyl-10,11,12,13,14,15-hexahydro-2H-pyrazolo[3′,4′:8,9][1,4]diazacycloundecino[10,11,1-hi]indole-8-carboxylic acid N-ethylethanamine salt], it took 10000 nM to reach a half-maximal effect with SUDHL5 cells [5] (EC50). The IC50 in the series on HMC-1-8 cells came to 7.1e-06 M; in the series with SUDHL5 cells [4], 7e-06 M.
